The subject of one assay is yeast. Particulars: known action; cited from earlier work.
The subject of assay [1] is yeast (Saccharomyces cerevisiae) that inducibly expresses ERG6. Briefly: Cycloheximide sensitivity of the strain that inducibly expresses ERG6. The following applies: 30° C., 2 days, various concentrations. The assay is classed as cell-based. The procedure:
The following experiments were performed to confirm a difference in drug resistance of yeast that inducibly expresses ergosterol depending on presence or absence of induction.
It was confirmed that the drug sensitivity was increased by turning off the expression of ergosterol.

With `CN(Cc1cnc2nc(N)nc(N)c2n1)c1ccc(C(=O)N[C@@H](CCC(=O)O)C(=O)O)cc1` [Methotrexate], the “growth inhibitory action against yeast” value with yeast is listed as “has a growth inhibitory action against yeast”. Consider `C[C@@H]1C[C@@H]([C@H](O)CC2CC(=O)NC(=O)C2)C(=O)[C@@H](C)C1` [cycloheximide], for which the cycloheximide sensitivity entry in assay [1] (galactose medium (ERG6 induced)) was “equal to that of a pdr1 pdr3-disrupted stain (ERG6 strain)”; in assay [1] (glucose medium (ERG6 repressed)), “equal to that of a pdr1 pdr3 erg6-disrupted strain”.

The record behind these values is US20090011951A1, “Method of Gene Screening With Yeast Having Ergosterol Synthase Undergoing Inducible Expression” (priority 2004, published 2009).
